Results as given in article PMC9181938, “Fluorinated Analogues of Lepidilines A and C: Synthesis and Screening of Their Anticancer and Antiviral Activity” (Molecules, 2022).
Where two headings read alike, the source gives them in different places.

How the values were obtained:
[1] = system: Human parainfluenza virus type 3 (HPIV-3); test: Antiviral activity assay (0.1–1000 µM), IC50; format: cell-based; conditions: Table S4, range 0.1-1000 µM, HPIV-3; read-out: IC50 (M) HPIV-3
Procedure: (§1) Antiviral properties of compounds 1e–1g, 1e[PF6], 8a–8d, and 9a were assessed against five viruses: Human herpesvirus 1 (HSV-1, VR-539), Human parainfluenza virus type 3 (HPIV-3, VR-93), Human adenovirus 5 (AdV5, VR-5), Human herpesvirus 5 (HCMV, VR-977), and Encephalomyocarditis virus (EMCV, VR-1479). Viruses were purchased from the American Type Culture Collection (ATCC, Manassas, VA, USA).
(§2) All tested compounds were dissolved in DMSO (dimethyl sulfoxide, Sigma-Aldrich, Darmstadt, Germany) and then suspended in Minimum Essential Medium (MEM; Sigma-Aldrich, Darmstadt, Germany) supplemented with 2% heat-inactivated fetal bovine serum (FBS; Sigma-Aldrich, Darmstadt, Germany), 2 mM L-glutamine (Sigma-Aldrich, Darmstadt, Germany), and 100 units/mL penicillin G with […] streptomycin (Sigma-Aldrich, Darmstadt, Germany).
Investigated cells were propagated in Minimum Essential Medium (MEM; Sigma-Aldrich, Darmstadt, Germany) supplemented with 10% heat-inactivated fetal bovine serum (FBS; Sigma-Aldrich, Darmstadt, Germany) and 100 units/mL penicillin G with […] streptomycin (Sigma-Aldrich, Darmstadt, Germany). After reaching 80–90% confluency, cells were harvested with trypsin (Life Technologies, Warsaw, Poland) and seeded into 96-well microplates at 2 × 10^5 cells/mL after overnight incubation of cells at 37 °C in a humidified atmosphere containing 5% CO2.
The culture medium was removed from confluent cells grown in 96-well microplates, and the cells were inoculated with virus solutions in MEM supplemented with 2% FBS and antibiotics (HSV-1 MOI 0.005, 1000 virions/mL; HPIV-3 MOI 0.01, 2000 virions/mL; AdV5 MOI 0.005, 1000 virions/mL; EMCV 0.005, 1000 virions/mL; HCMV 20 PFU/well (plaque-forming units per well). After a 1-h (HSV-1, HPIV-3, AdV5, and EMCV) or 2-h adsorption period (HCMV), residual viral particles were removed, and infected cells were further incubated with MEM supplemented with 2% FBS containing compound concentrations in the range from 0.1 to 1000 µM [38]. All experiments were carried out in triplicate. The cell monolayers were incubated with the investigated compounds at 37 °C in a humidified atmosphere containing 5% CO2 until a cytopathic effect (CPE) was visible. Viral infection was evaluated by the MTT assay (as described previously) or plaque reduction assay. HCMV plaques were counted under an inverted microscope, Olympus IX73 (Olympus, Tokyo, Japan). Antiviral activity was expressed as the concentration required to reduce the number of viral plaques to 50% of the control (virus-infected but untreated).

LLC-MK2 cells [2] = test: Cytotoxicity MTT assay (0.1–1000 µM), CC50; format: cell-based, Macaca mulatta
NCTC clone 929 cells = test: Cytotoxicity screening at 10 µM (MTT); format: cell-based, Mus musculus; conditions: 48 h
HeLa cells = test: Cytotoxicity screening at 10 µM (MTT); format: cell-based, Human; conditions: 48 h
[3] = system: Human adenovirus 5 (AdV5); test: Antiviral screening at 10 µM; format: cell-based; conditions: AdV5-infected cells
Procedure: as §1, with “1a, 1c, 1a[PF6], 1c[PF6], 9b[PF6], 9c[PF6], 10a–10d, 2a,” for “1e–1g, 1e[PF6], 8a–8d,”, “2b” for “9a”
as §2
(§3) Vero, LLC-MK2, NCTC clone 929, MRC-5, and HeLa cells were propagated in Minimum Essential Medium (MEM; Sigma-Aldrich, Darmstadt, Germany) supplemented with 10% heat-inactivated fetal bovine serum (FBS; Sigma-Aldrich, Darmstadt, Germany) and 100 units/mL penicillin G with […] streptomycin (Sigma-Aldrich, Darmstadt, Germany). Upon reaching 80–90% confluency, cells were harvested with 0.25% trypsin in 1 mM EDTA (Life Technologies, Warsaw, Poland) and seeded onto 96-well microplates at 2 × 10^5 cells/mL. After overnight incubation of cells at 37 °C in a humidified atmosphere containing 5% CO2, the culture medium was removed, and cells were inoculated with the respective virus solution in MEM supplemented with 2% FBS and antibiotics (HSV-1 MOI 0.005, 1000 virions/mL; HPIV-3 MOI 0.01, 2000 virions/mL; AdV5 MOI 0.005, 1000 virions/mL, EMCV MOI 0.005, 1000 virions/mL, HCMV 20 PFU (plaque forming units) per well). After a 1-h (HSV-1, HPIV-3, AdV5, and EMCV) or 2-h adsorption period (HCMV), the residual virus was removed, and the infected cells were further incubated with a 100 μL freshly prepared solution of tested compounds diluted with a maintenance medium supplemented with 2% FBS to obtain compound concentrations of 10 µM. The final concentration of DMSO in the medium was 0.1%. All experiments were carried out in triplicate. The cells monolayers were incubated with the compounds at 37 °C in a humidified atmosphere containing 5% CO2 until the typical cytopathic effect (CPE) was visible. Viral infection was evaluated by the MTT assay or plaque reduction assay (HCMV). After incubation with drugs, the cells were treated with 3-(4,5-dimethylthiazol-2-yl)-2,5-diphenyltetrazolium bromide dye solution (MTT, Sigma-Aldrich, Darmstadt, Germany) (25 μL, 5 mg/mL) for 2 h and lysed with solvent solution (100 μL) containing: DMF (Sigma-Aldrich, Darmstadt, Germany) (45 mL), SDS (Sigma-Aldrich, Darmstadt, Germany) (13.5 g), and distilled water (55 mL). After overnight incubation at 37 °C, the optical density at 550 nm and a reference wavelength of 670 nm were measured on a microplate spectrophotometer, Varioskan Lux (Thermo Fisher Scientific, Waltham, MA, USA). The number of HCMV plaques was counted under an inverted microscope Olympus IX73 (Olympus, Tokyo, Japan).

[4] = system: Human parainfluenza virus type 3 (HPIV-3); test: Antiviral screening at 10 µM; format: cell-based; conditions: antiviral screening, HPIV-3-infected cells
Procedure: as §1, with “1a, 1c, 1a[PF6], 1c[PF6], 9b[PF6], 9c[PF6], 10a–10d, 2a,” for “1e–1g, 1e[PF6], 8a–8d,”, “2b” for “9a”
as §2, §3

[5] = system: Human herpesvirus 1 (HSV-1); test: Antiviral screening at 10 µM; format: cell-based; conditions: antiviral screening, HSV-1-infected cells
Procedure: as §1, with “1a, 1c, 1a[PF6], 1c[PF6], 9b[PF6], 9c[PF6], 10a–10d, 2a,” for “1e–1g, 1e[PF6], 8a–8d,”, “2b” for “9a”
as §2, §3

[6] = system: Encephalomyocarditis virus (EMCV); test: Antiviral screening at 10 µM; format: cell-based; conditions: EMCV-infected cells
Procedure: as §1, with “1a, 1c, 1a[PF6], 1c[PF6], 9b[PF6], 9c[PF6], 10a–10d, 2a,” for “1e–1g, 1e[PF6], 8a–8d,”, “2b” for “9a”
as §2, §3

MRC-5 cells = test: Cytotoxicity screening at 10 µM (MTT); format: cell-based, Human; conditions: 48 h
Vero cells = test: Cytotoxicity screening at 10 µM (MTT); format: cell-based, Cercopithecus aethiops; conditions: 48 h
LLC-MK2 cells [7] = test: Cytotoxicity screening at 10 µM (MTT); format: cell-based, Macaca mulatta; conditions: 48 h
[8] = LLC-MK2, MTT, 48 h, read-out: CC50 Normal Cell Lines LLC-MK2
[9] = Table S2, range 0.1-1000 µM, LLC-MK2, read-out: Cell line (CC50 M) LLC-MK2

SMILES | IC50 [1] [M] | CC50 (LLC-MK2 cells [2]; [8]) [µM] | CC50 (LLC-MK2 cells [2]; [9]) [µM] | Cell line (viability %) NCTC clone 929 (NCTC clone 929 cells) [%] | Cell line (viability %) HeLa (HeLa cells) [%] | Cell line (viability %) AdV5 [3] [%] | Cell line (viability %) HPIV-3 [4] [%] | Cell line (viability %) HSV-1 [5] [%] | Cell line (viability %) EMCV [6] [%] | Cell line (viability %) MRC-5 (MRC-5 cells) [%] | Cell line (viability %) Vero (Vero cells) [%] | Cell line (viability %) LLC-MK2 (LLC-MK2 cells [7]) [%]
Cc1c(C)[n+](Cc2ccccc2)cn1Cc1ccccc1 [1a[PF6]] | > 3.27e-05 | < 80 | 32.7 ± 6.81 | 56.2 | 23.4 | 15.3 | 62.4 | 17.5 | 7.8 | 78.6 | 89.0 | 90.3
COc1cccc(Cn2c[n+](Cc3ccccc3)c(C)c2C)c1 [1c[PF6]] | > 7.53e-05 | < 80 | 75.3 ± 5.51 | 8.5 | 11.4 | 17.1 | 91.1 | 23.3 | 7.9 | 76.9 | 91.3 | 55.6
